Measured values from PMC4671658, “Release of 50 new, drug-like compounds and their computational target predictions for open source anti-tubercular drug discovery” (PLoS ONE, 2015).
Values after ≈ are worked out from the molar mass of the structure shown.

Test system: clinical isolate of M.tuberculosis resistant to isoniazid

## O=C(NCc1ccco1)N1CCN(Cc2ccc(Cl)s2)CC1 [TCMDC-143653]
  MIC against clinical isolate resistant to isoniazid: 1.6 µM (≈ 0.544 µg/mL)
